According to patent US10189863B2, “5,6-dihydro-4H-benzo[b]thieno-[2,3-d]azepine derivatives” (PULMOCIDE LIMITED, priority 2014, dated 2019):
Read-outs that look alike come from different tables or passages of the source.

Legend:
[1] = system: RSV A2 strain; assay: Assessment of RSV induced CPE in HEp2 cells (RSV A2 strain); type: cell-based; conditions: human respiratory syncytial virus; for IC50: HEp-2, 120 h; for inhibition at 0.01 µg/mL: Inhibition (%) at 0.01 μg/mL
Procedure, shortened: (§1)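 HEp2 cells were infected at MOI 1 with RSV A2 or RSV B Washington, with compound added at the same time (0.5% DMSO final). Incubation was 5 days for A2 and 6 days for B, then viability was read by resazurin fluorescence (545/590 nm) after 6 h. IC50, IC75 and IC90 came from concentration-response curves.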

[2] = system: RSV B Washington strain; assay: Assessment of RSV induced CPE in HEp2 cells (RSV B Washington strain); type: cell-based; conditions: human respiratory syncytial virus; for IC50: HEp-2, 144 h
Procedure, shortened: as §1

[3] = Cell viability: resazurin assay; type: cell-based, human; conditions: human, HEp2 cells
Procedure, shortened: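 Viability read-out: resazurin fluorescence (ex 545, em 590 nm) after 6 h, following 5-day compound incubation of HEp2 cells (37 °C, 5% CO2, 5% FBS, 0.5% DMSO final). Loss expressed as percentage of vehicle, negative if viability rose; CC50 derived from concentration-response curve where appropriate.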

[4] = HEp2 cells, 1 MOI, 5 days, read-out: RSV A2 CPE IC50
[5] = HEp2 cells, 1 MOI, 6 days, read-out: RSV B CPE IC50
[6] = HEp-2, HEp2 cells, Inhibition (%) at 1 μg/mL, read-out: RSV B CPE % Inhibition

SMILES: COCc1cnc(N2CC3(CCOCC3)C2)c(C(=O)Nc2ccc(C(=O)N3CCc4cc(C(=O)Nc5c(F)cccc5Cl)sc4-c4ccccc43)cc2)c1 [Example 67, N-(2-chloro-6-fluorophenyl)-6-(4-(5-(methoxymethyl)-2-(7-oxa-2-azaspiro[3.5]nonan-2-yl)nicotinamido)benzoyl)-5,6-dihydro-4H-benzo[b]thieno[2,3-d]azepine-2-carboxamide]
- IC50 [1, 4]: 0.17 nM
- inhibition at 0.01 µg/mL ([1]; HEp-2, HEp2 cells): 100%
- IC50 [2, 5]: 6.5 nM
- inhibition at 1 µg/mL [2, 6]: 100%
- CC50 at 5 days [3]: > 13100 nM

SMILES: N#Cc1ccccc1NC(=O)c1cc2c(s1)-c1ccccc1N(C(=O)c1ccc(NC(=O)c3cccnc3N3CC4(CCOCC4)C3)cc1)CC2 [Example 2, 6-(4-(2-(7-oxa-2-azaspiro[3.5]nonan-2-yl)nicotinamido)benzoyl)-N-(2-cyanophenyl)-5,6-dihydro-4H-benzo[b]thieno[2,3-d]azepine-2-carboxamide]
- IC50 ([1]; read-out: RSV A2 CPE IC50 (nM)): 0.16 nM
- inhibition at 0.1 µg/mL ([1]; HEp-2, read-out: RSV A2 CPE % Inhibition): 91%
- IC50 ([2]; read-out: RSV B CPE IC50 (nM)): 314 nM
- inhibition at 1 µg/mL ([2]; HEp-2, read-out: RSV B CPE % Inhibition): 69%
- CC50 at 5 days [3]: > 14400 nM

SMILES: COc1cccc(F)c1NC(=O)c1cc2c(s1)-c1ccccc1N(C(=O)c1ccc(NC(=O)c3cc(C)cnc3N3CC4(CCOCC4)C3)cc1)CC2 [Example 53, N-(2-fluoro-6-methoxyphenyl)-6-(4-(5-methyl-2-(7-oxa-2-azaspiro[3.5]nonan-2-yl)nicotinamido)benzoyl)-5,6-di-hydro-4H-benzo[b]thieno[2,3-d]azepine-2-carboxamide]
- IC50 [1, 4]: 0.23 nM
- inhibition at 0.1 µg/mL ([1]; HEp-2, HEp2 cells, Inhibition (%) at 0.1 μg/mL, read-out: RSV A2 CPE % Inhibition): 94%
- IC50 [2, 5]: 14.6 nM
- inhibition at 1 µg/mL [2, 6]: 96%
- CC50 at 5 days [3]: > 13700 nM

SMILES: Cc1cnc(N2CCC3(CC2)COC3)c(C(=O)Nc2ccc(C(=O)N3CCc4cc(C(=O)Nc5c(C)cccc5F)sc4-c4ccccc43)cc2)c1 [Example 91, N-(2-fluoro-6-methylphenyl)-6-(4-(5-methyl-2-(2-oxa-7-azaspiro[3.5]nonan-7-yl)nicotinamido)benzoyl)-5,6-dihydro-4H-benzo[b]thieno[2,3-d]azepine-2-carboxamide]
- IC50 [1, 4]: 1.3 nM
- inhibition at 0.01 µg/mL ([1]; HEp-2, HEp2 cells): 100%
- IC50 [2, 5]: 393 nM
- inhibition at 1 µg/mL [2, 6]: 100%
- CC50 at 5 days [3]: > 14000 nM
